Where two headings read alike, the source gives them in different places.
Legend:
human neutrophils [1] = assay: Neutrophil oxidative burst, DHR oxidation; conditions: for Effect of inhibitors on AgNP-induced DHR oxidation: DPI 10 µM, VAS2870 25 µM, Gö6983 1 µM, added with AgNP 10 µg/mL (4 nm and 19 nm); for Percentage of inhibition at the highest tested concentration: 25 μM flavonoid
Method: All patient-related procedures and protocols were performed in accordance with the Declaration of Helsinki and approved by the Ethics Committee of Centro Hospitalar do Porto. After written informed consent was obtained, venous blood from healthy human volunteers was collected by antecubital phlebotomy into vacuum tubes with K3EDTA. The isolation of human neutrophils was performed by the density gradient centrifugation method, as previously reported by our research group. Cells were resuspended in Tris buffer (25 mM Tris, 1.26 mM CaCl2, 5.37 mM KCl, 0.81 mM MgSO4, 140 mM NaCl and 5.55 mM D-Glucose) and the cell viability and cell yield (number of cells/mL) were determined by the trypan blue exclusion method using a Neubauer chamber.
The measurement of neutrophil oxidative burst was performed by monitoring the oxidation of DHR, by neutrophil-generated reactive species. Neutrophils (3 × 10^6 cells/mL) were incubated in a humidified incubator, at 37 °C, with 4 nm or 19 nm AgNP (0–10 µg/mL) alone or with flavonoids (0–25 µM) followed by DHR (10 µM) for 1 h 30 min.
The NADPH oxidase inhibitors, DPI (10 µM) and VAS2870 (25 µM), and the protein kinase C (PKC) inhibitor, Gö6983 (1 µM), were also tested, by their concomitant addition with AgNP (10 µg/mL). The fluorescence was measured in a microplate reader (λexcitation = 507 ± 20 nm/λemmission = 529 ± 20 nm).

Caco-2 cell line [2] = assay: Nitrite measurement by Griess reaction (•NO production); assay type: cell-based, human; conditions: for Prevention of AgNP-induced •NO production: flavonoids at maximum non-cytotoxic concentrations, Caco-2, 24 h, data not shown
Method: Nitrite measurement was based on the colorimetric detection of the reaction product of nitrite with naphthylethylenediamine dihydrochloride. The concentration of nitrite, which reflects nitric oxide (^•NO) production, was measured in the cell-free supernatants collected from the Caco-2 cell line. […] After the incubation period, 150 μL of culture medium was collected and placed in 96-well plates. […] The absorbance was measured at 570 nm using an automatic plate reader.

Caco-2 cell line [3] = assay: Annexin V-FITC versus propidium iodide flow cytometry (cell death); conditions: for Apoptosis-preventive effect (apoptotic population versus AgNP controls): flavonoid 25 μM co-incubated 24 h with 4 nm and 19 nm AgNP 20 µg/mL, Caco-2
Method: The evaluation of cell death was analyzed by flow cytometry, following simultaneous staining with propidium iodide (PI) and Annexin V labeled with fluorescein isothiocyanate (FITC), according to a previously described method, using the Annexin V-FITC Apoptosis Detection Kit. Briefly, 5 × 10^5 cells/well were seeded in 6 well plates and exposed to 20 μg/mL AgNP (4 and 19 nm) and/or to the flavonoids quercetin or quercetagetin (25 μM) for 24 h. […] After the 24 h exposure, cell supernatants were discarded, and cells were washed with DPBS buffer and detached from cells plates with trypsin:EDTA solution. Individualized cells were counted in a Neubauer chamber, and after DPBS wash, cells were resuspended at a density of 1 × 10^6 cells/mL binding buffer provided by the kit. Subsequently, 1 × 10^5 cells were transferred to suitable cytometry tubes, and Annexin V-FITC and PI were added. The mixture was incubated for 15 min and at least 10,000 events were immediately read in a BD Accuri™ C6 Plus Flow Cytometer (BD biosciences, Becton, Franklin Lakes, NJ, USA). The green fluorescence corresponding to Annexin-V conjugated with FITC was followed in channel 1 (FL1) and plotted as a histogram of FL1 staining. Fluorescence due to the PI incorporation was followed in channel 3 (FL3).

human neutrophils [4] = assay: Neutrophil viability, PI staining flow cytometry; assay type: cell-based; conditions: PEI 10 μg/mL, AgNO3 3 μg/mL, data not shown
Method: Following exposure, cells were centrifuged (400× g at 20 °C, during 5 min) and the supernatant was discarded. The pellet was resuspended in DPBS solution and centrifuged (200g at 20 °C, during 5 min). After centrifugation, the pellet was resuspended with 100 μL propidium iodide solution (1 µg/mL) and incubated for 15 min in the dark. After this time, 400 μL of DPBS buffer was added and the fluorescence was measured in flow cytometer. To restrict the analysis to neutrophils only, a polygon gate was set according to their light scattering properties (in a forward vs. side scatter plot) excluding cell debris and other blood cells. Fluorescence signals for at least 10,000 cells were collected in logarithmic mode and the data were analyzed using C Flow (Accuri®) software (BD, Becton, Dickinson and Company, Franklin Lakes, NJ, USA).

Caco-2 cell line [5] = assay: MTT reduction assay, cytotoxicity in Caco-2 cells; conditions: for Selected Maximum Concentration (maximum non-cytotoxic flavonoid concentration): Caco-2 cells, 24 h, MTT assay, tested 3.13 to 50 μM; for Protection against AgNP-induced cytotoxicity: 24 h co-incubation with 20 or 50 μg/mL AgNP (4 and 19 nm), non-toxic flavonoid concentrations (quercetagetin 50 µM)
Method: Cells were grown in a 5% CO2 atmosphere at 37 °C. For each experiment, the cells were used when reaching 80% of confluence, which represented 3 to 5 days of differentiation. Then, the proliferating Caco-2 cells were treated 24 h after seeding.
The MTT reduction assay was used to determine the cytotoxicity of PEI coated-AgNP of two sizes (4 and 19 nm) in the Caco-2 cell line. […] After the exposure period, the culture medium was replaced with fresh medium containing 0.5 mg/mL MTT and the cells were further incubated for 2 h. The resulting dark purple crystals of formazan were then dissolved in DMSO and the absorbance of the corresponding solution, which was directly proportional to the number of living cells, was measured in an automatic plate reader set at a test wavelength of 570 nm and a reference wavelength of 620 nm.

Caco-2 cells = conditions: cited from earlier work
[6] = Homo sapiens, Neutrophil, read-out: IC50 (Mean ± SEM), inhibition of AgNP 4 nm-induced oxidative burst, AgNP 4 nm, human neutrophils, DHR
[7] = Homo sapiens, Neutrophil, read-out: IC50 (Mean ± SEM), inhibition of AgNP 19 nm-induced oxidative burst, AgNP 19 nm, human neutrophils, DHR
[8] = read-out: IC50 (Mean ± SEM), inhibition of AgNP 4 nm-induced oxidative burst, AgNP 4 nm, human neutrophils, DHR

O=[N+]([O-])[O-].[Ag+] [AgNO3, Silver nitrate, reference compound]
Neutrophil oxidative burst (human neutrophils [1]; PEI 10 μg/mL, AgNO3 3 μg/mL, data not shown): did not affect neutrophil oxidative burst | •NO production (Caco-2 cell line [2]; 9 μg/mL AgNO3, 24 h, Caco-2): induced a significant production of ^•NO | Cell viability (Annexin V/PI) (Caco-2 cell line [3]; PEI 20 μg/mL, AgNO3 4.5 μg/mL, Caco-2, 24 h, data not shown): did not induce significant alterations in cell viability | Neutrophil viability (human neutrophils [4]): did not affect neutrophil viability

c1ccc2c(c1)[I+]c1ccccc1-2 [DPI, diphenyleneiodonium chloride, reference compound]
Effect of inhibitors on AgNP-induced DHR oxidation (human neutrophils [1]): decreased DHR oxidation induced by 4nm and 19 nm AgNP

COc1ccc(-c2cc(=O)c3c(O)cc(O)cc3o2)cc1O [Diosmetin]
Percentage of inhibition at the highest tested concentration (human neutrophils [1]; AgNP 4 nm, human neutrophils, DHR): 37 ± 3 % | Percentage of inhibition at the highest tested concentration (human neutrophils [1]; AgNP 19 nm, human neutrophils, DHR): 37 ± 7 % | IC50 (human neutrophils [1]; Homo sapiens, Neutrophil, read-out: IC50, inhibition of AgNP-induced neutrophil oxidative burst, AgNP of 4 and 19 nm, human neutrophils, DHR): > 25000 nM

O=c1c(O)c(-c2ccc(O)c(O)c2)oc2c(O)c(O)cc(O)c12 [Gossypetin]
IC50 (human neutrophils [1]; Homo sapiens, Neutrophil, read-out: IC50 (Mean ± SEM), inhibition of AgNP 4 nm-induced oxidative burst): 2100 ± 300 nM | IC50 (human neutrophils [1]; Homo sapiens, Neutrophil, read-out: IC50 (Mean ± SEM), inhibition of AgNP 19 nm-induced oxidative burst): 4500 ± 1200 nM

COc1ccc2c(c1)c(C1=C(c3c[nH]c4ccccc34)C(=O)NC1=O)cn2CCCN(C)C [Gö6983, 3-[1-[3-(dimethylamino)propyl]-5-methoxy-1H-indol-3-yl]-4-(1H-indol-3-yl)-1H-pyrrole-2,5-dione, reference compound]
Effect of inhibitors on AgNP-induced DHR oxidation (human neutrophils [1]): prevented the activation of neutrophil oxidative burst induced by AgNP

O=c1cc(-c2ccc(O)c(O)c2)oc2cc(O)cc(O)c12 [Luteolin]
IC50 (human neutrophils [1]; [6]): 1300 ± 200 nM | IC50 (human neutrophils [1]; [7]): 1300 ± 200 nM | Selected Maximum Concentration (maximum non-cytotoxic flavonoid concentration) (Caco-2 cell line [5]): 12.5 µM

O=c1c(O)c(-c2ccc(O)cc2O)oc2cc(O)cc(O)c12 [Morin]
IC50 (human neutrophils [1]; [6]): 1400 ± 400 nM | IC50 (human neutrophils [1]; [7]): 1500 ± 400 nM | Selected Maximum Concentration (maximum non-cytotoxic flavonoid concentration) (Caco-2 cell line [5]): 50.0 µM

O=c1c(O)c(-c2cc(O)c(O)c(O)c2)oc2cc(O)cc(O)c12 [Myricetin]
IC50 (human neutrophils [1]; [6]): 2300 ± 100 nM | IC50 (human neutrophils [1]; [7]): 3100 ± 200 nM | Selected Maximum Concentration (maximum non-cytotoxic flavonoid concentration) (Caco-2 cell line [5]): 50.0 µM

O=c1c(O)c(-c2ccc(O)c(O)c2)oc2cc(O)c(O)c(O)c12 [Quercetagetin]
IC50 (human neutrophils [1]; [6]): < 1000 nM | IC50 (human neutrophils [1]; [7]): 3000 ± 200 nM | IC50 (human neutrophils [1]; [8]): 530 ± 60 nM | Prevention of AgNP-induced •NO production (Caco-2 cell line [2]): neither quercetin nor quercetagetin prevented AgNP-induced ^•NO production | Percentage of apoptotic cells on co-treatment (Caco-2 cell line [3]; co-treatment with 4 nm AgNP (20 μg/mL), Caco-2, 24 h): increased the percentage of apoptotic cells | Apoptosis-preventive effect (apoptotic population versus AgNP controls) (Caco-2 cell line [3]): did not significantly decrease the apoptotic population | Protection against AgNP-induced cytotoxicity (Caco-2 cell line [5]): prevented the cytotoxic effects of the two sizes of AgNP | Protection against AgNP-induced cytotoxicity (Caco-2 cell line [5]; listed as quercetagetin): significantly reduced the cell death induced by AgNP of 4 and 19 nm | Selected Maximum Concentration (maximum non-cytotoxic flavonoid concentration) (Caco-2 cell line [5]): 50.0 µM

O=c1c(O)c(-c2ccc(O)c(O)c2)oc2cc(O)cc(O)c12 [Quercetin]
IC50 (human neutrophils [1]; [6]): < 1000 nM | IC50 (human neutrophils [1]; [7]): 3100 ± 600 nM | IC50 (human neutrophils [1]; [8]): 940 ± 90 nM | Prevention of AgNP-induced •NO production (Caco-2 cell line [2]): neither quercetin nor quercetagetin prevented AgNP-induced ^•NO production | Apoptosis-preventive effect (apoptotic population versus AgNP controls) (Caco-2 cell line [3]): reversed the pro-apoptotic effect of AgNP | Protection against AgNP-induced cytotoxicity (Caco-2 cell line [5]): partially prevented AgNP cytotoxicity | Protection against AgNP-induced cytotoxicity (Caco-2 cell line [5]; listed as quercetin): significantly reduced the cell death induced by AgNP of 4 and 19 nm | Selected Maximum Concentration (maximum non-cytotoxic flavonoid concentration) (Caco-2 cell line [5]): 25.0 µM | Reversal of loss of viability induced by AgNP (Caco-2 cells; 10 and 50 µM, Caco-2 cells treated with AgNP < 20 nm (30–90 μg/mL)): most effectively reversed the loss of viability induced by AgNP | Reversal of toxicity induced by AgNP (Caco-2 cells; quercetin 50 µM, AgNP ≥45 μg/mL, ref Martirosyan et al.): successfully reverted the toxicity induced by AgNP

c1ccc(Cn2nnc3c(Sc4nc5ccccc5o4)ncnc32)cc1 [VAS2870, reference compound]
Effect of inhibitors on AgNP-induced DHR oxidation (human neutrophils [1]): decreased DHR oxidation induced by 4nm and 19 nm AgNP

— PMC8588041, “Protective Role of Flavonoids against Intestinal Pro-Inflammatory Effects of Silver Nanoparticles” (Molecules, 2021)
